Assay in all cases: growth of human tumour cells (NCI), 48 h
The subject of assay [1] is IGROV1 ovarian.
The subject of assay [2] is SR leukemia.
In assay [3] the test system is SF-295 CNS.
The subject of assay [4] is SN12C renal.
Assay [5] concerns OVCAR-3 ovarian.
Assay [6] deals with MOLT-4 leukemia.
Assay [7] concerns SK-MEL-28 melanoma.
Assay [8] deals with SK-MEL-2 melanoma.
For assay [9], the system named is HCT-15 colon.

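Following 48 hours of exposure in 96-well plates, responses at five concentrations were used to interpolate endpoints linearly. GI50 = concentration required for 50% inhibition of growth. TGI: total growth inhibition.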

Regarding `O=C(N/C(=C\c1cc(Cl)ccc1Cl)c1nc2ccc(Cl)cc2[nH]1)c1ccccc1`, the TGI in [1] was 29.8 µM; in assay [2], 25.5 µM; in assay [3], 31.3 µM; in assay [4] it was 34 µM; in assay [5], 35.1 µM; in [6] it was 37.2 µM. Moreover, the TGI turned out to be 32.4 µM in assay [7], 32.4 µM in assay [8] and 31 µM in assay [9].
With `O=C(O)COc1ccc(C(=O)/C(SS/C(C(=O)c2ccc(OCC(=O)O)c(Cl)c2Cl)=C2\C=C(c3ccc(Br)cc3)SS2)=C2/C=C(c3ccc(Br)cc3)SS2)c(Cl)c1Cl`, the TGI in [1] was 23.1 µM; in assay [2] it was 8.59 µM; in assay [3] it was 43.3 µM; in assay [4], more than 100 µM; in assay [5], 21.7 µM; in [6], 15 µM. Besides, the figures for the TGI in [7], in assay [8] and in [9] were more than 100 µM, 33.7 µM and more than 40.9 µM, respectively.
Turning to `COC(=O)C#CCC1CCCC1C1SCCS1` (stereo not given), the TGI in assay [1] was more than 100 µM; in [2], 84.3 µM; in assay [3], more than 100 µM; in assay [4], more than 100 µM; in [5] it was more than 100 µM; in [6], 75.6 µM. For the same compound, the TGI is more than 100 µM in [7] and 74.6 µM in assay [8].
With `C#C[C@H]1CCCCCC1O` (stereo not given in full), the TGI in assay [1], in [2], in assay [3], in assay [4], in [5] and in assay [6] was more than 100 µM throughout. The TGI in [7], in assay [8] and in assay [9] was more than 100 µM throughout.
For `Nc1ccc(C(=O)N/C(=C\c2cccc([N+](=O)[O-])c2)c2nc3ccc(Cl)cc3[nH]2)cc1`, the TGI in assay [1], in assay [2], in assay [3], in assay [4], in assay [5] and in assay [6] was more than 100 µM throughout. Further, the TGI in assay [7], in assay [8] and in assay [9] was more than 100 µM each time.
In the case of `COc1ccc2c(c1)C(=O)c1c-2n(CCCN)c(=O)c2cc([N+](=O)[O-])ccc12`, the GI50 in assay [1] is less than 0.01 µM; in [2], less than 0.01 µM; in assay [3] it was less than 0.01 µM; in [4], less than 0.01 µM; in [5], 2.79 µM; in assay [6], less than 0.01 µM. Further, the GI50 in assay [8] is 3.06 µM; in assay [9], 1.77 µM. For the same compound, the TGI in assay [1] was 0.192 µM; in [2], less than 0.01 µM; in [3], 12.2 µM; in [4], less than 0.01 µM; in assay [5], 15.9 µM; in assay [6], less than 0.01 µM. Also, the values for the TGI in assay [8] and in assay [9] were 8.53 µM and more than 100 µM, respectively.
Consider `Cc1ccc(NC(=O)CC2SC(N)=NC2=O)cc1C` (stereo not given), for which the TGI in assay [1], in [2], in assay [3], in assay [4], in assay [5] and in assay [6] was more than 100 µM throughout. Moreover, the TGI in [7], in assay [8] and in assay [9] was more than 100 µM in each case.
On to `O=C(CCc1nc(=S)[nH][nH]1)Nc1cccc(C(F)(F)F)c1`, for which the TGI in assay [1], in assay [2], in assay [3], in [4], in [5] and in assay [6] was more than 100 µM throughout. Further, the TGI in assay [7], in assay [8] and in assay [9] was more than 100 µM in each case.
As for `CCC[CH2][Sn]([CH2]CCC)([O]C(=O)/C=C/c1ccccc1F)[O]C(=O)/C=C/c1ccccc1F`, the GI50 was 0.585 µM in assay [1]; 0.305 µM in assay [2]; 1.43 µM in [3]; 1.03 µM in [4]; 1.07 µM in assay [5]; 0.267 µM in assay [6]. Moreover, the GI50 was 0.328 µM in [7], 0.324 µM in assay [8] and 0.74 µM in assay [9]. Besides, the TGI in [1] was 1.66 µM; in [2], 2.1 µM; in assay [3], 2.78 µM; in assay [4], 2.29 µM; in assay [5], 2.31 µM; in assay [6], 1.71 µM. Further, the TGI in [7] was 1.29 µM; in assay [8], 1.19 µM; in assay [9] it was 1.95 µM.
With `COc1cc2c(c(OC)c1OC)-c1c(cc3c(c1OC)OCO3)CC(C)C(C)(O)C2OC(=O)c1ccccc1` (stereo not given), the TGI in assay [1] was more than 100 µM; in [2] it was 55.9 µM; in assay [3], more than 100 µM; in assay [4] it was more than 100 µM; in [5] it was more than 100 µM; in assay [6], 29.3 µM. Also, the TGI in [7] is more than 100 µM; in assay [8] it was 80.5 µM; in assay [9], more than 100 µM.
